# Reference: patent publication US9474755B2, “GLP-1 receptor modulators” (Receptos, Inc., priority 2014, dated 2016)
# Molecular target: T1, GLP-1R (Homo sapiens, UniProt P43220)
# T1 construct: host or cells: CRE-bla CHO-K1
# Assay: EC20 GLP-1(9-36) PAM cAMP Assay: dose response of compound in the presence of fixed concentration of GLP-1(9-36)
# Assay type: cell-based
# Conditions: GLP-1R CRE-bla CHO-K1 cells, in presence of fixed concentration of GLP-1(9-36), 30 min at 37° C.
# In short: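 GLP-1R CRE-bla CHO-K1 cells in HBSS/10 mM Hepes/0.1% BSA, pH 7.4, with IBMX were given a 12-point compound dose-response plus a fixed EC20 level of GLP-1(9-36) for 30 min at 37° C. cAMP was measured by luminescence, converted via a standard curve, and EC50 and Emax were fitted by non-linear regression.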
# T1 sequence (P43220 24-463): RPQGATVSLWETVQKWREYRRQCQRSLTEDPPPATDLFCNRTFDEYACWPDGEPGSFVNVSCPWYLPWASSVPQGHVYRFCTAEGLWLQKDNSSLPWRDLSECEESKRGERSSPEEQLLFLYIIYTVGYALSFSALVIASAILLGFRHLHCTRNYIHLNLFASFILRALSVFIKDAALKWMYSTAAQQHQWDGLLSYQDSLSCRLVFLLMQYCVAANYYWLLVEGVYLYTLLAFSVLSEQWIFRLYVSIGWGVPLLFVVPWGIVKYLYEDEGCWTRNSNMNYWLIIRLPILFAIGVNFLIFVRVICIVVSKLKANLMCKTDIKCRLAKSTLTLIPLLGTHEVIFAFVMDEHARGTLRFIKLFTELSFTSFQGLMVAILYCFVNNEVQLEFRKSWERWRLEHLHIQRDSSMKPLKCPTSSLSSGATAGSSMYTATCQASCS
# T1 sequence (P01275 100-127 partner limits assumed): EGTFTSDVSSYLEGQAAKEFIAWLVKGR
row,EC50 [µM],Structure (SMILES)
1,< 0.5,CCCc1ccc(C(=O)N[C@@H](Cc2ccc(-c3ncc(C4=CCC(C5CCC(CCC)CC5)CC4)cn3)cc2)C(=O)N2CC(C(=O)O)C2)cc1 (stereo partly drawn) [Compound 22]
2,< 0.5,"CC[C@H]1CC[C@H](C2CC=C(c3cnc(-c4ccc(C[C@H](NC(=O)c5ccc(C(C)(C)C)s5)C(=O)NS(C)(=O)=O)cc4)nc3)CC2)CC1 (mixture of isomers) [Compound 109, 5-(tert-butyl)-N—((S)-3-(4-(5-((1RS,1′r,4′RS)-4′-ethyl-[1,1′-bi(cyclohexan)]-3-en-4-yl)pyrimidin-2-yl)phenyl)-1-(methylsulfonamido)-1-oxopropan-2-yl)thiophene-2-carboxamide]"
3,0.5 to 2.5,CCCC1CC=C(c2cnc(-c3ccc(C[C@H](NC(=O)c4ccc(C(C)(C)C)s4)C(=O)N[C@H](C)C(=O)O)cc3)nc2)CC1 (stereo partly drawn) [Compound 52]
4,0.5 to 2.5,CC1(C)CCC(C2CC=C(c3cnc(-c4ccc(C[C@H](NC(=O)c5ccc(C(C)(C)C)s5)C(=O)O)cc4)nc3)CC2)CC1 (stereo partly drawn) [Compound 122]
5,< 0.5,CCCCCC1CCC(C2CC=C(c3cnc(-c4ccc(C[C@H](NC(=O)c5ccc(C(C)(C)C)s5)C(=O)N5CC[C@H](C(=O)O)C5)cc4)nc3)CC2)CC1 (stereo partly drawn) [Compound 3]
6,< 0.5,CCCC1CCC(C2CC=C(c3cnc(-c4ccc(CC(NC(=O)c5ccc(C(C)(C)C)s5)C(=O)N5CC(C(=O)O)C5)cc4)nc3)CC2)CC1C (stereo not drawn) [Compound 85]
7,< 0.5,CCCC1CCC(C2CC=C(c3cnc(-c4ccc(C[C@H](NC(=O)c5ccc(C6(C)CC6)cc5)C(=O)N5CC(C(=O)O)C5)cc4)nc3)CC2)CC1 (stereo partly drawn) [Compound 26]
8,< 0.5,CCC[C@H]1CC[C@H](C2CCC(c3cnc(-c4ccc(C[C@H](NC(=O)c5ccc(C(C)(C)C)s5)C(=O)N5CC(C(=O)O)C5)cc4)nc3)=C(C)C2)CC1 (stereo partly drawn) [Compound 89]
9,< 0.5,COC(=O)C1CC=C(c2cnc(-c3ccc(C[C@H](NC(=O)c4ccc(C(C)(C)C)s4)C(=O)N[C@H](C)C(=O)O)cc3)nc2)CC1 (stereo partly drawn) [Compound 62]
10,< 0.5,CC[C@H]1CC[C@H](C2CC=C(c3cnc(-c4ccc(C[C@H](NC(=O)c5ccc(C(F)(F)F)s5)C(=O)N5CC(C(=O)O)C5)cc4)nc3)CC2)CC1 (stereo partly drawn) [Compound 98]
11,< 0.5,CC[C@H]1CC[C@H](C2CC=C(c3cnc(-c4ccc(C[C@H](NC(=O)c5ccc(CC(C)C)s5)C(=O)N5CC(C(=O)O)C5)cc4)nc3)CC2)CC1 (stereo partly drawn) [Compound 96]
12,< 0.5,CC(C)(C)c1ccc(C(=O)N[C@@H](Cc2ccc(-c3ncc(C4=CCC(c5ccccc5)CC4)cn3)cc2)C(=O)N2CC(C(=O)O)C2)s1 (stereo partly drawn) [Compound 11]
13,< 0.5,CCCC1CCC(C2CC=C(c3cnc(-c4ccc(C[C@H](NC(=O)c5ccc(C(C)(C)C)s5)C(=O)NCCC(=O)O)cc4)nc3)CC2)CC1 (stereo partly drawn) [Compound 71]
14,< 0.5,CCCc1ccc(C2CC=C(c3cnc(-c4ccc(C[C@H](NC(=O)c5ccc(C(C)(C)C)s5)C(=O)O)cc4)nc3)CC2)cc1 (stereo partly drawn) [Compound 121]
15,< 0.5,CCCC1CCC(C2CC=C(c3cnc(-c4ccc(C[C@H](NC(=O)c5ccc(C(C)C)cc5)C(=O)N5CC(C(=O)O)C5)cc4)nc3)CC2)CC1 (stereo partly drawn) [Compound 13]
16,< 0.5,CC(C)(C)c1ccc(C(=O)N[C@@H](Cc2ccc(-c3ncc(C4=CCC([C@H]5CC[C@H](C)CC5)CC4)cn3)cc2)C(=O)NS(C)(=O)=O)s1 (stereo partly drawn) [Compound 115]
17,0.5 to 2.5,CC[C@H]1CC[C@H](C2CC=C(c3cnc(-c4ccc(C[C@H](NC(=O)c5ccc(C(C)(C)C)s5)C(=O)O)cc4)nc3)CC2)CC1 (stereo partly drawn) [Compound 119]
18,0.5 to 2.5,CCCC1CC=C(c2cnc(-c3ccc(C[C@H](NC(=O)c4ccc(C(C)(C)C)s4)C(=O)N4CC(C(=O)O)C4)cc3)nc2)CC1 (stereo partly drawn) [Compound 39]
19,0.5 to 2.5,C[C@@H](NC(=O)[C@H](Cc1ccc(-c2ncc(C3=Cc4ccccc4C3)cn2)cc1)NC(=O)c1ccc(C(C)(C)C)s1)C(=O)O [Compound 50]
20,0.5 to 2.5,CCCCC1CC=C(c2cnc(-c3ccc(C[C@H](NC(=O)c4ccc(C(C)(C)C)s4)C(=O)N4CC(C(=O)O)C4)cc3)nc2)CC1 (stereo partly drawn) [Compound 45]
21,5 to 10,CC1(C)COC2(CC=C(c3cnc(-c4ccc(CC(NC(=O)c5ccc(C(C)(C)C)s5)C(=O)N5CC(C(=O)O)C5)cc4)nc3)CC2)OC1 (stereo not drawn) [Compound 43]
